The record followed here is patent US20240208992A1, “MACROCYCLES AS CFTR MODULATORS” (Idorsia Pharmaceuticals Ltd, priority 2021, published 2024).

In this experiment the target is human F508del-CFTR (Homo sapiens, UniProt P13569, DEL508-508). Put plainly: F508del-CFTR cell surface expression (corrector activity), DiscoveRx ß-galactosidase complementation chemiluminescence assay in recombinant U2OS cell line.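 On all read-outs here: U2OS cells co-expressing ProLink-tagged F508del-CFTR and a membrane-anchored enzyme acceptor, where more surface CFTR restores β-galactosidase activity measured by chemiluminescence.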 Conditions: U2OS cells, 16h compound incubation; for EC50: EC50, F508del-CFTR cell surface expression, geomean of several measurements; for Emax: U2OS, in relation to the Emax of the corrector lumacaftor (=100%), arithmetic mean.
Chain of human F508del-CFTR (P13569 with tags, fused parts or gaps DEL508-508): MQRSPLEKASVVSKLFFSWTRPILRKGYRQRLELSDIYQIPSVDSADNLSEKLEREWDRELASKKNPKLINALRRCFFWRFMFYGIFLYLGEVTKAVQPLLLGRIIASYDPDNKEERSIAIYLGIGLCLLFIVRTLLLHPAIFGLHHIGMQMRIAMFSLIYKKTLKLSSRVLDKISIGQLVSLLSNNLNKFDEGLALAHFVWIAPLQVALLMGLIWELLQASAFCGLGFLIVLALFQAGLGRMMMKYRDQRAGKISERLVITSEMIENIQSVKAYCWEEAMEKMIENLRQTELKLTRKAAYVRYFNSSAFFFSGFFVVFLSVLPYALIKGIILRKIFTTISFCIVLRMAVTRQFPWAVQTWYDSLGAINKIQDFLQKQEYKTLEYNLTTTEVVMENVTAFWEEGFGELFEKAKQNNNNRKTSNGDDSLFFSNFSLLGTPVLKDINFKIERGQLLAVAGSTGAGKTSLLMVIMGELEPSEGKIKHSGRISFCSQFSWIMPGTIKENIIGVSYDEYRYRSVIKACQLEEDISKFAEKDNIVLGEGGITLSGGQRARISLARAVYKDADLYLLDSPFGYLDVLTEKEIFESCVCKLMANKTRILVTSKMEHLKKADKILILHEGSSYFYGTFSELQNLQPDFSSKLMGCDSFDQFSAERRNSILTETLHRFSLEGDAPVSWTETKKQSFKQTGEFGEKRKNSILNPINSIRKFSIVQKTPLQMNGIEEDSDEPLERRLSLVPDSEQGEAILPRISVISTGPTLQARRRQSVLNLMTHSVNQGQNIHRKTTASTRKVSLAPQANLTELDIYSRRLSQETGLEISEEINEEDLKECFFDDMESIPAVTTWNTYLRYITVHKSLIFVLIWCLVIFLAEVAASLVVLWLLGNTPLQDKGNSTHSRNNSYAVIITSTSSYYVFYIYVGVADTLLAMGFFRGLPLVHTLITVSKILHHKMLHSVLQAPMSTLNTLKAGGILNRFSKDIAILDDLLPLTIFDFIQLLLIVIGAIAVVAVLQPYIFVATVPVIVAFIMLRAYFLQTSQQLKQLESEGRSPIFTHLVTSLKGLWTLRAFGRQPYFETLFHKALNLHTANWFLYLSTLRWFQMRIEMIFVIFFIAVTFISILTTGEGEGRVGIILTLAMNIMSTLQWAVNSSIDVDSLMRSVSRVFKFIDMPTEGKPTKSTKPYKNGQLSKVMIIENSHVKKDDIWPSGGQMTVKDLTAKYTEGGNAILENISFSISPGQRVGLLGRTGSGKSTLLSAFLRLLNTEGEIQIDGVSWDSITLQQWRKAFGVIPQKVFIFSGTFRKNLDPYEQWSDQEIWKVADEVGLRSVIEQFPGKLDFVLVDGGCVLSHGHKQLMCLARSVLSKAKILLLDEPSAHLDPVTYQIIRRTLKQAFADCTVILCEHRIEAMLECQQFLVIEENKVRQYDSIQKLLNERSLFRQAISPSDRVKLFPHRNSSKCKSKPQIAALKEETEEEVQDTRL

The term EC50 denotes the concentration needed to bring the measured effect to its halfway point. As a reminder, the Emax is the maximal effect, on the per cent scale that the assay sets. Consider `COc1cc(CCNC(=O)[C@@H]2CC(=O)N(C)[C@@H](CC(C)C)C(=O)N(C)[C@H](Cc3nc(C(F)(F)F)no3)C(=O)N[C@H](Cc3ccccc3)COc3ccc4cnc(C)cc4c3C(=O)N2)on1` [Example 898, (3S,7S,10R,13R)-13-benzyl-7-isobutyl-N-(2-(3-methoxyisoxazol-5-yl)ethyl)-6,9,20-trimethyl-1,5,8,11-tetraoxo-10-((3-(trifluoromethyl)-1,2,4-oxadiazol-5-yl)methyl)-1,2,3,4,5,6,7,8,9,10,11,12,13,14-tetradecahydro-[1]oxa[4,7,10,14]tetraazacycloheptadecino[16,17-f]isoquinoline-3-carboxamide], for which the EC50 turned out to be 22 nM and the Emax amounted to 440%.

For the compound `Cc1cc2c3c(ccc2cn1)OC[C@@H](Cc1ccccc1)NC(=O)C1(CC1)N(C)C(=O)[C@H](CC(C)C)N(C)C(=O)C[C@@H](C(=O)NCCc1noc(C2CC2)n1)NC3=O` [Example 900, (3′S,7′S,13′R)-13′-benzyl-N-(2-(5-cyclopropyl-1,2,4-oxadiazol-3-yl)ethyl)-7′-isobutyl-6′,9′,20′-trimethyl-1′,5′,8′,11′-tetraoxo-2′,3′,4′,5′,6′,7′,8′,9′,11′,12′,13′,14′-dodecahydro-1′H-spiro[cyclopropane-1,10′-[1]oxa[4,7,10,14]tetraazacycloheptadecino[16,17-f]isoquinoline]-3′-carboxamide], the EC50 amounted to 831 nM and the maximal response (Emax) is 374%.

Regarding `COc1cc(CCNC(=O)[C@@H]2CC(=O)N(C)[C@@H](CC(C)C)C(=O)N(C)C3(CC3)C(=O)N[C@H](Cc3ccccc3)COc3ccc4cnc(C)cc4c3C(=O)N2)on1` [Example 901, (3′S,7′S,13′R)-13′-benzyl-7′-isobutyl-N-(2-(3-methoxyisoxazol-5-yl)ethyl)-6′,9′,20′-trimethyl-1′,5′,8′,11′-tetraoxo-2′,3′,4′,5′,6′,7′,8′,9′,11′,12′,13′,14′-dodecahydro-1′H-spiro[cyclopropane-1,10′-[1]oxa[4,7,10,14]tetraazacycloheptadecino[16,17-f]isoquinoline]-3′-carboxamide], the EC50 came out at 736 nM and the Emax amounted to 390%.

`COc1nc(C)cc2c1C(=O)N[C@H](C(=O)NCCn1nnc(C3CC3)n1)CC(=O)N(C)[C@@H](CC(C)C)C(=O)N(C)[C@H](Cc1nc(C(F)(F)F)no1)C(=O)N[C@H](Cc1ccccc1)CO2` [Example 902, (3R,6R,9S,13S)-3-benzyl-N-(2-(5-cyclopropyl-2H-tetrazol-2-yl)ethyl)-9-isobutyl-16-methoxy-7,10,18-trimethyl-5,8,11,15-tetraoxo-6-((3-(trifluoromethyl)-1,2,4-oxadiazol-5-yl)methyl)-2,3,4,5,6,7,8,9,10,11,12,13,14,15-tetradecahydropyrido[3,4-p][1]oxa[4,7,10,14]tetraazacycloheptadecine-13-carboxamide]: the EC50 was determined as 55 nM and the Emax worked out at 453%.

For `COc1nc(C)cc2c1C(=O)N[C@H](C(=O)NCCn1nc3ccccc3n1)CC(=O)N(C)[C@@H](CC(C)C)C(=O)N(C)[C@H](Cc1nc(C(F)(F)F)no1)C(=O)N[C@H](Cc1ccccc1)CO2` [Example 903, (3R,6R,9S,13S)-N-(2-(2H-benzo[d][1,2,3]triazol-2-yl)ethyl)-3-benzyl-9-isobutyl-16-methoxy-7,10,18-trimethyl-5,8,11,15-tetraoxo-6-((3-(trifluoromethyl)-1,2,4-oxadiazol-5-yl)methyl)-2,3,4,5,6,7,8,9,10,11,12,13,14,15-tetradecahydropyrido[3,4-p][1]oxa[4,7,10,14]tetraazacycloheptadecine-13-carboxamide], the EC50 was 51 nM and the Emax was found to be 414%.

On to `Cc1cc2c3c(ccc2cn1)OC[C@@H](Cc1ccccc1)NC(=O)C1(CC1)N(C)C(=O)[C@H](CC(C)C)N(C)C(=O)C[C@@H](C(=O)NCCn1nc2ccccc2n1)NC3=O` [Example 904, (3′S,7′S,13′R)-N-(2-(2H-benzo[d][1,2,3]triazol-2-yl)ethyl)-13′-benzyl-7′-isobutyl-6′,9′,20′-trimethyl-1′,5′,8′,11′-tetraoxo-2′,3′,4′,5′,6′,7′,8′,9′,11′,12′,13′,14′-dodecahydro-1′H-spiro[cyclopropane-1,10′-[1]oxa[4,7,10,14]tetraazacycloheptadecino[16,17-f]isoquinoline]-3′-carboxamide], for which the EC50 was determined as 722 nM and the Emax turned out to be 365%.

As to `Cc1cc2c3c(ccc2cn1)OC[C@@H](Cc1ccccc1)NC(=O)[C@@H](Cc1nc(-c2ccc(F)cn2)no1)N(C)C(=O)[C@H](CC(C)C)N(C)C(=O)C[C@@H](C(=O)NCCc1noc(C2CC2)n1)NC3=O` [Example 905], the EC50 was 311 nM and the Emax amounted to 415%.

Consider `COc1cc(CCNC(=O)[C@@H]2CC(=O)N(C)[C@@H](CC(C)C)C(=O)N(C)[C@H](Cc3nc(-c4ccc(F)cn4)no3)C(=O)N[C@H](Cc3ccccc3)COc3ccc4cnc(C)cc4c3C(=O)N2)on1` [Example 906, (3S,7S,10R,13R)-13-benzyl-10-((3-(5-fluoropyridin-2-yl)-1,2,4-oxadiazol-5-yl)methyl)-7-isobutyl-N-(2-(3-methoxyisoxazol-5-yl)ethyl)-6,9,20-trimethyl-1,5,8,11-tetraoxo-1,2,3,4,5,6,7,8,9,10,11,12,13,14-tetradecahydro-[1]oxa[4,7,10,14]tetraazacycloheptadecino[16,17-f]isoquinoline-3-carboxamide], for which the EC50 is 294 nM and the Emax turned out to be 433%.

Consider `Cc1cc2c3c(ccc2cn1)OC[C@@H](Cc1ccccc1)NC(=O)[C@@H](Cc1nc(-c2ccc(F)cn2)no1)N(C)C(=O)[C@H](CC(C)C)N(C)C(=O)C[C@@H](C(=O)NCCn1nnc(C2CC2)n1)NC3=O` [Example 907], for which the EC50 came out at 425 nM and the Emax is 454%.

For `CC(C)C[C@H]1C(=O)N(C)[C@H](Cc2nc(C(F)(F)F)no2)C(=O)N[C@H](Cc2ccccc2)COc2ccc3ncc(F)cc3c2C(=O)N[C@H](C(=O)NCCc2nc3ncccn3n2)CC(=O)N1C` [Example 908, (3S,7S,10R,13R)-N-(2-([1,2,4]triazolo[1,5-a]pyrimidin-2-yl)ethyl)-13-benzyl-20-fluoro-7-isobutyl-6,9-dimethyl-1,5,8,11-tetraoxo-10-((3-(trifluoromethyl)-1,2,4-oxadiazol-5-yl)methyl)-1,2,3,4,5,6,7,8,9,10,11,12,13,14-tetradecahydro-[1]oxa[4,7,10,14]tetraazacycloheptadecino[16,17-f]quinoline-3-carboxamide], the EC50 is 94 nM and the Emax was 401%.

For the compound `COc1cc(CCNC(=O)[C@@H]2CC(=O)N(C)[C@@H](CC(C)C)C(=O)N(C)[C@H](Cc3nc(C(F)(F)F)no3)C(=O)N[C@H](Cc3ccccc3)COc3cc(C)c4ncccc4c3C(=O)N2)on1` [Example 909, (3S,7S,10R,13R)-13-benzyl-7-isobutyl-N-(2-(3-methoxyisoxazol-5-yl)ethyl)-6,9,17-trimethyl-1,5,8,11-tetraoxo-10-((3-(trifluoromethyl)-1,2,4-oxadiazol-5-yl)methyl)-1,2,3,4,5,6,7,8,9,10,11,12,13,14-tetradecahydro-[1]oxa[4,7,10,14]tetraazacycloheptadecino[16,17-f]quinoline-3-carboxamide], the EC50 came out at 17 nM and the Emax was 430%.

Consider `CCOCC[C@@H]1C(=O)N[C@H](Cc2ccccc2)COc2cc(C)nc(OC)c2C(=O)N[C@H](C(=O)NCCc2cc(C3CC3)no2)CC(=O)N(C)[C@@H](CC(C)C)C(=O)N1C` [Example 910, (3R,6R,9S,13S)-3-benzyl-N-(2-(3-cyclopropylisoxazol-5-yl)ethyl)-6-(2-ethoxyethyl)-9-isobutyl-16-methoxy-7,10,18-trimethyl-5,8,11,15-tetraoxo-2,3,4,5,6,7,8,9,10,11,12,13,14,15-tetradecahydropyrido[3,4-p][1]oxa[4,7,10,14]tetraazacycloheptadecine-13-carboxamide], for which the EC50 came to 477 nM and the Emax is 423%.

As to `COc1noc(CCNC(=O)[C@@H]2CC(=O)N(C)[C@@H](CC(C)C)C(=O)N(C)C3(CC3)C(=O)N[C@H](Cc3ccccc3)COc3ccc4ncc(F)cc4c3C(=O)N2)n1` [Example 911, (3′S,7′S,13′R)-13′-benzyl-20′-fluoro-7′-isobutyl-N-(2-(3-methoxy-1,2,4-oxadiazol-5-yl)ethyl)-6′,9′-dimethyl-1′,5′,8′,11′-tetraoxo-2′,3′,4′,5′,6′,7′,8′,9′,11′,12′,13′,14′-dodecahydro-1′H-spiro[cyclopropane-1,10′-[1]oxa[4,7,10,14]tetraazacycloheptadecino[16,17-f]quinoline]-3′-carboxamide], the EC50 turned out to be 531 nM and the maximal effect (Emax) came out at 341%.

Consider `COc1cc(CCNC(=O)[C@@H]2CC(=O)N(C)[C@@H](CC(C)C)C(=O)N3CCCC[C@@H]3C(=O)N[C@H](Cc3ccccc3)COc3ccc4ncccc4c3C(=O)N2)on1` [Example 912, (9S,13S,19aR,22R)-22-benzyl-13-isobutyl-N-(2-(3-methoxyisoxazol-5-yl)ethyl)-12-methyl-7,11,14,20-tetraoxo-7,8,9,10,11,12,13,14,17,18,19,19a,20,21,22,23-hexadecahydro-16H-pyrido[2′,1′:6,7][1]oxa[4,7,10,14]tetraazacycloheptadecino[16,17-f]quinoline-9-carboxamide], for which the EC50 is 272 nM and the Emax came out at 332%.

For the compound `CCOCC[C@@H]1C(=O)N[C@H](Cc2ccccc2)COc2ccc3cnc(C)cc3c2C(=O)N[C@H](C(=O)NCCc2cc(OC)no2)CC(=O)N(C)[C@@H](CC(C)C)C(=O)N1C` [Example 913, (3S,7S,10R,13R)-13-benzyl-10-(2-ethoxyethyl)-7-isobutyl-N-(2-(3-methoxyisoxazol-5-yl)ethyl)-6,9,20-trimethyl-1,5,8,11-tetraoxo-1,2,3,4,5,6,7,8,9,10,11,12,13,14-tetradecahydro-[1]oxa[4,7,10,14]tetraazacycloheptadecino[16,17-f]isoquinoline-3-carboxamide], the EC50 stood at 294 nM and the Emax came to 390%.
